In patent EP0425443A1, “Injectable antiparasitic agent” (CIBA-GEIGY AG, priority 1989, dated 1991):
In brackets after ≈: the same amount, converted by molar mass.

Assay: Solubility of the active substance in organic solvents
Type: physicochemical
Details: dmso and n-methylpyrrolidone, organic solvent or mixture; in Dimethylsulfoxid und N-Methylpyrrolidon; Gewicht-pro-Volumen-Prozent; read-out: Solubility (lösen)
Excerpt: Injizierbare Zubereitungen stellen wegen der sehr genauen Dosierbarkeit auch kleiner Wirkstoffmengen, der leichten Anwendbarkeit und der geringfügigen Beunruhigung der zu behandelnden Tiere, insbesondere grösserer Nutztiere, wie beispielsweise Rinder, Schafe, Pferde und Esel, oftmals die günstigste Applikationsart dar. Bei der Verwendung von schwerlöslichen Substanzen wie insbesondere den Benzoylphenylharnstoffen in Form injizierbarer Formulierungen ergeben sich jedoch Probleme, wenn mit ihnen ein wirksamer Plasmaspiegel, d.h., eine gleichmässige Verteilung einer ausreichenden Wirkstoffmenge im Plasma, erreicht werden soll, weil das injizierte Material von der Gewebsflüssigkeit beeinflusst wird und damit beispielsweise die physikalisch-chemischen Eigenschaften besagten Materials so verändert werden können, dass ein erheblicher Anteil des injizierten Materials sehr rasch kristallisiert und dadurch an der Injektionsstelle oder in sehr naher Umgebung davon verbleibt. So lassen sich Benzoylharnstoffe, beispielsweise N-[3-(3-Chlor-5-trifluormethylpyridyl-2-oxy)-4-chlorphenyl]-N'-[2,6-difluorbenzoyl]-hamstoff, in Dimethylsulfoxid und N-Methylpyrrolidon (etwa 35 %, Prozentangaben bedeuten hier und im folgenden Gewichtpro-Volumen-Prozent) lösen. […]

O=C(NC(=O)c1c(F)cccc1F)Nc1ccc(Cl)c(Oc2ncc(C(F)(F)F)cc2Cl)c1 [N-[3-(3-Chlor-5-trifluormethylpyridyl-2-oxy)-4-chlorphenyl]-N'-[2,6-difluorbenzoyl]-harnstoff]
solubility: ~350 mg/mL (≈ 691 mM)
